# Laboratory results published in patent US20030154499A1, “Mouse unable to express functional alpha-4 integrin protein, and methods for assaying compounds or agents for alpha-4 integrin protein antagonist activity and a genetic marker for evaluating efficacy of modulators of signaling activity of a VLA-4 receptor” (priority 2001, published 2003).
# Columns and labels:
# Type in all cases: in vivo
# [1] = system: EST AA154371; test: Taqman analysis of EST AA154371 in brain and spleen of treated EAE mice
# Protocol: (§1) In these experiments, EAE (experimental allergic encephalomyelitis) mice were used. The EAE mouse is an animal model for Central Nervous System (CNS) autoimmune disease. It is widely used as a human Multiple Sclerosis (MS) model.
# (§2) EAE mice (see protocol below) vehicle only treated and treated with IVL984 or HMR1031 for 14 days (5 mice per group) were sacrificed by cervical dislocation. The brain was aseptically removed and the RNA was prepared using a standard Trizol (Invitrogen) prep (protocol see below). The prepped RNA was run on an agarose gel to determine the quality of the RNA and quantified by UV spec analysis. Taqman analysis was performed using sequence specific primers and probes (sequence see below).
# (§3) PLP139-151 peptide is dissolved in H2O:PBS (1:1) solution to a concentration 5 mg/10 ml (for 50 ug PLP per mouse) or 7.5 mg/10 ml (for 75 ug PLP per […]) and emulsified with an equal volume of CFA supplemented with 40 mg/10 ml heated-killed mycobacterium tuberculosis H37Ra. Mice are injected s.c. with 0.2 ml of peptide emulsion in the abdominal flank (0.1 ml on each side). On the same day and 72 hr later, mice are injected i.v. with 100 μl of 35 ng and 50 ng of Bordetella Pertussis toxin in saline respectively. Treatment IVL984 or HMR1031 or vehicle control only: 0.2% Hydroxypropyl Methylcellulose) started 7 days after immunization, before the first EAE symptoms appeared.
# (§4) EAE mice treated with HMR1031A, 50 mg/kg, q.d., s.c. for 14 days from day 7
# (§5) EAE mice treated with IVL984 50 mg/kg, q.d., s.c. for 14 days from day 7
# (§6) Brain was divided into two halves and each half was placed in a sterile 1.5 ml tube. 0.5 ml TRIzol was added to each tube and the tissue was homogenized using a hand held tissue homogenizer. […]
# (§7) The final pellets were briefly air dried and resuspended in nuclease-free, sterile water. […] The concentration was determined by measuring the absorbance at 260 nm.
# Taqman primers were ordered for the EST with the accession number AA154371 (EST AA154371 (sequence for the EST: SEQ ID NO 21). Primers for the real time Taqman PCR studies were chosen using Primer Express software (Perkin Elmer) and synthesized by Sigma Genosys. The sequences of the forward and reverse primers were GACAGGGCTGAGGATTCGG (SEQ ID NO: 22) and […] (SEQ ID NO: 23) respectively. PCR product was run on the 4% agarose gel to confirm presence of a single band. PCR reactions were run on ABI Prizm System 7700 sequence detector (Perkin-Elmer) using CybrGreen PCR Core Reagents Kit (Perkin-Elmer) according to the manufacturer's protocol. […] The results were normalized to 18S and expressed as logarithm base 2 of copy number difference with18S RNA levels. […]
# [2] = system: M. musculus mRNA for macrophage mannose receptor; test: Taqman analysis of macrophage mannose receptor mRNA in brain and spleen of treated EAE mice
# Protocol: as §1, §2
# as §3, with “respectively.” for “respectively. Treatment IVL984 or HMR1031 or vehicle control only: 0.2% Hydroxypropyl Methylcellulose) started 7 days after immunization, before the first EAE symptoms appeared.”
# (§8) Treatment IVL984 or HMR1031 or vehicle control only: 0.2% Hydroxypropyl Methylcellulose) started 7 days after immunization, before the first EAE symptoms appeared.
# as §4, §5
# Brain was divided into two halves and each half was placed in a steril 1.5 ml tube. 0.5 ml TRIzol was added to each tube and the tissue was homogenized using a hand held tissue homogenizer. After homogenization, another 0.5 ml of TRIzol was added to each tube and the samples were incubated for 5 minutes at room temperature to permit complete dissociation of nucleoprotein complexes.
# 0.2 ml of Chloroform (Sigma) was added to each tube and vortexed. Samples were incubated for an additional 5 minutes at room temperature and then centrifuged at 12,000×g for 15 minutes at 4° C.
# The upper aqueous phase was transferred into a fresh, steril tube and the two sample halves per mouse were combined. 0.5 ml isopropylalcohol was added to each combined sample, vortexed and incubated at room temperature for 10 minutes. The samples were then centrifuged at 12,000×g at 4° C. […]
# as §7
# Taqman primers were ordered for Mus musculus mRNA for macrophage mannose receptor (Accession number: Z11974). […] The results were normalized to 18S and expressed as logarithm base 2 of copy number difference with 18S RNA levels. […]
# [3] = system: EST AA571535; test: Taqman analysis of EST AA571535 in brain and spleen of treated EAE mice
# Protocol: as §1, §2
# as §3, with “respectively.” for “respectively. Treatment IVL984 or HMR1031 or vehicle control only: 0.2% Hydroxypropyl Methylcellulose) started 7 days after immunization, before the first EAE symptoms appeared.”
# as §8, §4, §5, §6, §7
# Taqman primers were ordered for the EST with the accession number AA571535 (EST AA571535 (sequence for the EST: SEQ ID NO 18). Primers for the real time Taqman PCR studies were chosen using Primer Express software (Perkin Elmer) and synthesized by Sigma Genosys. The sequences of the forward and reverse primers were AGCAGCCATGGGAGGCA (SEQ ID NO: 19) and TCCGTTTCCCCACAGCAC (SEQ ID NO: 20) respectively. PCR product was run on the 4% agarose gel to confirm presence of a single band. PCR reactions were run on ABI Prizm System 7700 sequence detector (Perkin-Elmer) using CybrGreen PCR Core Reagents Kit (Perkin-Elmer) according to the manufacturer's protocol. […] The results were normalized to 18S and expressed as logarithm base 2 of copy number difference with18S RNA levels. […]
# [4] = system: JAB or SOCS-1 protein; test: FACS analysis of SOCS-1 (JAB) protein in spleen cells of treated EAE mice; conditions: 50 mg/kg q.d. s.c. for 14 days from day 7, FACS with C- and N-terminal antibodies, vs vehicle
# Source text: In these experiments, EAE (experimental allergic encephalomyelitis) mice as well as KO and wt mice of the present invention were used. The EAE mouse is an animal model for Central Nervous System (CNS) autoimmune disease. It is widely used as a human Multiple Sclerosis (MS) model.
# EAE mice (see protocol below) vehicle only treated and treated with IVL984 for 14 days (5 mice per group) as well as 5 alpha-4 integrin KO mice of the present invention and 4 wt mice of the same genetic background were sacrificed by cervical dislocation. The spleen was aseptically removed and placed in a 15 ml centrifuge tube containing RPMI 1640 medium with 1% FCS. The spleens were then individually meshed in a 10 cm petri dish through a sterile wire screen using a sterile rubber policeman (0.23 mm pore size screen, Thomas Scientific). The screen was washed and the cell suspension collected and transferred into a 15 ml centrifuge tube. After centrifugation at 1200 rpm for 10 minutes at 4° C., the supernatant was decanted and the red blood cells lysed with 1 ml/spleen ice-cold red blood cell lysis buffer for 1-3 minutes on ice. The supernatant was then carefully transferred into a fresh 15 ml centrifuge tube, leaving the fat pellet behind. […] The number of alive cells was determined using a hemacytometer (Hauser Scientific) and Trypan Blue (Gibco, Life Technologies) as the dye. […]
# [5] = EAE mice, 50 mg/kg q.d. s.c. for 14 days from day 7, brain, vs vehicle control
# [6] = EAE mice, 50 mg/kg q.d. s.c. for 14 days from day 7, spleen, vs vehicle control
# [7] = bodily samples of treated EAE mice, tissue not given
structure (smiles),measurement,setting,value
COc1cc(CC(=O)Nc2ccc([C@@H](CC(=O)O)NC(=O)CCCC(=O)O)cc2)ccc1NC(=O)Nc1ccccc1C [IVL 984],"EST AA 154371, Brain",[1]; [5],✓ (Statistically significant decrease in macrophage mannose receptor mRNA or protein levels with a 5% or lower probability rate in treated mice compared to vehicle control mice.)
same,"EST AA 154371, Spleen",[1]; [6],✓ (Statistically significant decrease in macrophage mannose receptor mRNA or protein levels with a 5% or lower probability rate in treated mice compared to vehicle control mice.)
same,EST AA154371 mRNA levels in comparison to vehicle control mice,"[1]; EAE mice, brain samples",statistically significant lower
same,levels of the genetic marker EST AA154371,[1]; [7],decreased levels of expression
same,"Macrophage mannose receptor, Brain",[2]; [5],"Tendency (The decrease in macrophage mannose receptor mRNA levels is a statistically significant, a probability rate of 5-15%.)"
same,"Macrophage mannose receptor, Spleen",[2]; [6],— (The changes in mRNA levels are statisically significant at a probability rate of higher than 15% (not significant).)
same,macrophage mannose receptor mRNA levels in comparison to vehicle control mice,"[2]; EAE mice, brain samples",statistically significant lower
same,levels of the genetic marker macrophage mannose receptor mRNA,[2]; [7],decreased levels of expression
same,"EST AA 571535, Brain",[3]; [5],— (The changes in mRNA levels are statistically significant at a probability rate of higher than 15% (not significant).)
same,"EST AA 571535, Spleen",[3]; [6],— (The changes in mRNA levels are statistically significant at a probability rate of higher than 15% (not significant).)
same,EST AA571535 mRNA levels in comparison to vehicle control mice,"[3]; EAE mice, brain samples",statistically significant lower
same,levels of the genetic marker EST AA571535,[3]; [7],decreased levels of expression
same,levels of JAB or SOCS-1 protein,[4],decreased levels of expression on the protein level
